Measured values as given in patent US8981106B2, “Pyrimidinecarboxamides as CXCR2 modulators” (Syntrix Biosystems, Inc., priority 2009, dated 2015).
Entries after “also recorded” stand apart in the source; their conditions may differ. Where two headings read alike, the source gives them in different places.

Experiments:
CXCR2 [1] = biological target: T1, CXCR2 (Homo sapiens (Human), UniProt P25025); experiment: β-arrestin recruitment, β-galactosidase fragment complementation (DiscoveRx)
Target sequence in this assay (P25025 whole entry, species assumed, the tested form may be a part): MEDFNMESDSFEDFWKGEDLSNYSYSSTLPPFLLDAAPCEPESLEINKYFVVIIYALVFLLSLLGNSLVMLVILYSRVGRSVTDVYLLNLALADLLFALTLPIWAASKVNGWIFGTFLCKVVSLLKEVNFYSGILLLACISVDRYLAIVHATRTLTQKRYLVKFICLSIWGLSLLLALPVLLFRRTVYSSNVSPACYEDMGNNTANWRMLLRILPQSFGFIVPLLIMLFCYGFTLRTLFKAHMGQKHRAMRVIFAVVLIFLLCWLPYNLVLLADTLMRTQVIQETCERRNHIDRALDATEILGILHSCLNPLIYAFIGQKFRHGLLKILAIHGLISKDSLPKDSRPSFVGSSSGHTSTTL

CXCR2 [2] = biological target: T1, CXCR2; experiment: 125I-IL-8 radioligand binding inhibition; details: concentrations up to 10 μM
From the text: In vitro experiments, in addition to those measuring calcium release from human PMNs, provided evidence that the mechanism of action of Compounds 1 and 2 are most consistent with an allosteric (non-competitive) mode of action.
Target sequence in this assay (P25025 whole entry, the tested form may be a part): as the sequence (P25025 whole entry, species assumed, the tested form may be a part) above

CXCR2 [3] = biological target: T1, CXCR2; experiment: Agonist activity: intracellular calcium release in human neutrophils in the absence of GROα; format: cell-based; details: relative to the response to 25 nM GROα
Protocol: In Tables 1-5, the IC50 or EC50 values were determined using the following assay. This assay measures intracellular calcium release via fluorescence as an indication of CXCR2 receptor activation by the physiologic agonist GROα. The assay is a Ca^2+ mobilization assay that measures changes in intracellular Ca^2+ with a FlexStation II scanning fluorometer using a FLIPR-3 Calcium Assay Kit (Molecular Devices, Sunnyvale, Calif.). The procedure is as follows:
9. The maximum change in fluorescence, expressed in arbitrary units over baseline (Max-Min) was used to determine the GROα response. […] Therapeutic Activity
The maximum change in fluorescence, expressed in arbitrary units over baseline (Max-Min), was used to determine the GROα response.
Intracellular calcium release is a hallmark of CXCR2 activation by endogenous agonists, such as GROα and IL-8.
Target sequence in this assay (P25025 whole entry, the tested form may be a part): as the sequence (P25025 whole entry, species assumed, the tested form may be a part) above

Aqueous solubility = format: physicochemical
CXCR2 [4] = biological target: T1, CXCR2; experiment: Inhibition of GROα-mediated intracellular calcium release in human neutrophils (FLIPR-3 Ca2+ mobilization); format: cell-based
Target sequence in this assay (P25025 whole entry, the tested form may be a part): as the sequence (P25025 whole entry, species assumed, the tested form may be a part) above

[5] = Crossover pharmacokinetic experiment in Beagle dogs; format: in vivo
Protocol: In this study, male Beagle dogs (n=5) were dosed intravenously on study day 1 with SX-576 in dimethylformamide/PEG400/saline (40:40:20) at a dose level of 5 mg/kg and a dose volume of 0.5 mL/kg. Blood samples were taken predose, and at time points 30, 60, 90, 120, 180, 360, 540 and 720 minutes. The blood was collected in tubes containing K2EDTA as an anticoagulant, and the tubes were centrifuged and the plasma fractions collected and frozen. After a one-week washout period, the same Beagle dogs were dosed orally with SX-576 in lipid based excipient Gelucire® 44/14 (Gattefosse) at a dose level of 5 mg/kg. Blood samples were then taken and plasma fractions collected as previously described. Prior to analysis, the plasma samples were thawed and diluted 1:3 into acetonitrile containing 1 μM of compound 153 as an internal standard. The resulting samples were centrifuged and the supernatant analyzed by LC-MS monitoring in multiple reaction monitoring mode. The samples were run concomitantly with a calibration curve of SX-576 in the same internal standard solution.
The lipid based excipient Gelucire® 44/14 is a self-emulsifying drug delivery system (SEDDS) that is able to solubilize both SX-517 and SX-576 into aqueous solutions via micellular formation. […] Therefore, lipid-based emulsifiers are important excipients for the oral delivery of SX-576.

neutrophil influx [6] = experiment: Murine air pouch model of neutrophil chemotaxis (p.o.); format: in vivo, male CD-1 mice; details: for total neutrophil counts in the blood: high doses, compared to control animals; for neutrophil influx / neutrophil influx at high oral dose: p.o.
Protocol: Compounds 1 (SX-517) and 2 (SX-576) were also assayed in an in vivo air-pouch model of inflammation. SX-517 and SX-576 were able to attenuate neutrophil influx in the air-pouch model by about 50% at an oral dose of 0.2 and 0.05 mg/kg, respectively. […] More specifically, the procedure was performed by forming an air pouch on the backs of male CD-1 mice via the subcutaneous injection of air (2 mL). The next day, an additional subcutaneous injection of air (1.5 mL) was performed to reinflate the air pouch. The mice were given either vehicle control (Labrasol®) or test compound solubilized in Labrasol® via oral gavage. After 3 hours, either sterile phosphate buffered saline (PBS, 1 ml) or 2% carrageenan in sterile PBS (1 mL) was injected into the air pouch. After 4 hours, the mice were sedated with ketamine, and sacrificed by cervical dislocation. The exudate in the air pouch was collected by syringe, with an additional 2 mL wash with sterile PBS. The neutrophils were stained with trypan blue and counted on a hemocytometer under 20× magnification.

pulmonary inflammation = experiment: Ozone rat model of pulmonary inflammation; format: in vivo, Sprague-Dawley rats; details: 1 mg/kg i.v., 1 ppm ozone, BALF at 24 hours
Protocol: Activity in this model of pulmonary inflammation would provide direct relevance towards the treatment of a number of pulmonary inflammatory diseases, including chronic obstructive pulmonary disease (COPD) and bronchopulmonary dysplasia (BPD). In this experiment, Sprague-Dawley rats (n=4 per cohort) were dosed intravenously at t=0 with either vehicle (negative and positive groups, dimethylformamide/PEG400/saline, 40:40:20) or SX-576 (1 mg/kg). The rats were then placed in air (negative group) or 1 ppm ozone (positive and SX-576 groups) for 4 hours. The rats were dosed again at t=5 and 9 hours. The rats were then sacrificed at t=24 hours, and the bronchoalveolar lavage fluid (BALF) was collected. The cells were spun down, stained with Wright-Giemsa and counted. In the negative groups, no neutrophils were observed when stained. As a measure of lung leakage/damage, protein levels were quantified in BALF by Bradford protein assay analysis.

CXCR2 [7] = biological target: T1, CXCR2; experiment: Wash-resistant inhibition of GROα-mediated calcium response after inhibitor washout; format: cell-based; details: 0.4, 2, 10 μM, 30 min incubation, washed, up to 6 h after washout
Target sequence in this assay (P25025 whole entry, the tested form may be a part): as the sequence (P25025 whole entry, species assumed, the tested form may be a part) above
Protocol: The cells were washed and resuspended in RPMI/2% serum (serum was obtained from the same donor as the neutrophils). The concentration of the neutrophil suspension was 10^7 cells/mL. […] The neutrophils were washed and resuspended in RPMI/2% serum and maintained at room temperature. At 30 minutes before each time point, a 56.25 μL aliquot of the neutrophils were removed and loaded for 30 minutes at room temperature in the dark with FLIPR-3 reagent (262.5 μL per tube).

neutrophil influx [8] = experiment: Murine air pouch model of neutrophil chemotaxis (i.v.); format: in vivo, male CD-1 mice; details: i.v., 0.02, 0.05, 0.2 and 1.0 mg/kg
Protocol: The procedure was performed by forming an air pouch on the backs of male CD-1 mice via the subcutaneous injection of air (2 mL). The next day, an additional subcutaneous injection of air (1.5 mL) was performed to reinflate the air pouch. The mice were given either vehicle control (dimethylformamide/PEG400/saline) or test compound solubilized in vehicle via tail vein injection. After 30 minutes, either sterile phosphate buffered saline (PBS, 1 ml) or 2% carrageenan in sterile PBS (1 mL) was injected into the air pouch. After 4 hours, the mice were sedated with ketamine, and sacrificed by cervical dislocation. The exudate in the air pouch was collected by syringe, with an additional 2 mL wash with sterile PBS. The neutrophils were stained with trypan blue and counted on a hemocytometer under 20× magnification.

## O=C(Nc1ccc(F)cc1)c1ccc(SCc2ccccc2B(O)O)nc1 [Compound 1, 6-(2-borono-2-yl-benzylsulfanyl)-N-(4-fluoro-phenyl)-nicotinamide]
CXCR2 [1]
  activity on β-arrestin complexation with CXCR2 in the absence of IL8: inverse agonists
  inhibition of β-arrestin recruitment following CXCR2 activation with IL8: inhibited arrestin recruitment
CXCR2 [2]
  displacement of radiolabeled IL-8 binding to CXCR2 receptors: unable to significantly displace
CXCR2 [3]
  Magnitude of Agonist Response (% of GROα only Control): did not show agonist activity
Aqueous solubility
  aqueous solubility: poor aqueous solubility
CXCR2 [4]; human neutrophils, 25 nM GROα, read-out: IC50
  IC50: 0.038 ± 0.003 µM
CXCR2 [4]; in vitro, stated in the binding example, read-out: IC50 in vitro
  IC50: ~0.06 µM
[5]
  plasma level when dosed without excipient: undetected in plasma
Neutrophil influx [6]
  total neutrophil counts in the blood: not significantly changed
Neutrophil influx [6]; oral dose 0.2 mg/kg
  attenuation of neutrophil influx: about 50%
Neutrophil influx [6]; 0.005 and 0.2 (mg/kg)
  neutrophil influx: decrease of neutrophil influx
Neutrophil influx [6]; doses in excess of 10 mg/kg
  neutrophil influx at high oral dose: increase in neutrophil influx

## O=C(Nc1ccc(F)cc1)c1ccc(SCc2cc(OC(F)(F)F)ccc2B(O)O)nc1 [Compound 2, 6-(2-boronic acid-5-trifluoromethoxy-benzylsulfanyl)-N-(4-fluoro-phenyl)-nicotinamide]
Pulmonary inflammation
  influx of macrophages into the lungs: significantly decreased
  influx of neutrophils into the lungs: significantly decreased
  ozone-induced lung damage (protein levels in the BALF): protected against ozone-induced lung damage
CXCR2 [7]
  wash-resistant inhibition of GROα mediated intracellular calcium release: dose-dependent and wash-resistant inhibition
CXCR2 [1]
  activity on β-arrestin complexation with CXCR2 in the absence of IL8: inverse agonists
CXCR2 [1]; listed as SX-576
  inhibition of β-arrestin recruitment following CXCR2 activation with IL8: inhibited arrestin recruitment; also recorded: more potent inhibitor than SX-517, comparable to the diarylurea SB225002
Neutrophil influx [8]
  neutrophil influx: significantly attenuate neutrophil influx
CXCR2 [3]
  Magnitude of Agonist Response (% of GROα only Control): 100%
Aqueous solubility
  aqueous solubility: poor aqueous solubility
[5]; 5 mg/kg oral in Gelucire 44/14
  bioavailability following oral administration: improved the bioavailability
[5]
  plasma level when dosed without excipient: undetected in plasma
Neutrophil influx [6]
  total neutrophil counts in the blood: not significantly changed
Neutrophil influx [6]; oral dose 0.05 mg/kg
  attenuation of neutrophil influx: about 50%
Neutrophil influx [6]; 0.05 mg/kg
  neutrophil influx: decrease of neutrophil influx
Neutrophil influx [6]; doses in excess of 1 mg/kg
  neutrophil influx at high oral dose: increase in neutrophil influx
